Results taken from patent US9353113B2, “Tetrahydrocarboline derivative” (ONO PHARMACEUTICAL CO., LTD., priority 2011, dated 2016).
Counter-ions that a name gives are not always drawn.

What follows are compounds tested against human ENPP2 (Homo sapiens (Human), UniProt Q13822) (assay: Measurement of human ENPP2 inhibitory activity). Conditions: human ENPP2, 16:0-LPC substrate.
Format: biochemical
Method: 10 μL of a test compound solution (10% dimethyl sulfoxide) at each concentration and 40 μL of a 5 μg/mL human ENPP2 solution (buffer A: 100 mmol/L Tris-HCl (pH 9.0), 500 mmol/L NaCl, 5 mmol/L MgCl2, 0.05% Triton X-100) were mixed, 50 μL of a 2 mmol/L 16:0-lysophosphatidylcholine (LPC) solution (buffer A) was further added to react at 37° C. for 24 hours. Subsequently, to 10 ill, of the reaction solution was added 90 III, of a measurement buffer (0.5 mmol/L aminoantipyrine, 0.3 mmol/L N-ethyl-N-(2-hydroxy-3-sulfopropyl)-3-methylaniline, 1 U/mL peroxidase, 3 U/mL choline oxidase, 100 mmol/L Tris-HCl (pH 8.5), 5 mmol/L CaCl2) to react at 37° C. for 20 minutes, and spectrophotometric determination was performed at 555 nm.
Using a standard curve, a choline production amount (enzyme activity) in each test compound was calculated, and the inhibitory activity rate of each test compound was calculated, wherein the enzyme activity in a positive control to which a test compound is not added, was a 0% inhibition rate, and the enzyme activity in a negative control to which a test compound and human ENPP2 are not added, were 100% inhibition. Further, concerning the present compounds shown in Table 3, an IC50 value was calculated from inhibitory activity rate at each concentration.

IC50	Compound
4.5 nM	CC(C)(CCCC(=O)N1CCc2c(n(Cc3cnc(C(F)(F)F)s3)c3ncccc23)C1)C(=O)O [Example 3(50), 2,2-dimethyl-6-oxo-6-(9-{[2-(trifluoromethyl)-1,3-thiazol-5-yl]methyl}-5,6,8,9-tetrahydro-7H-pyrido[4′,3′:4,5]pyrrolo[2,3-b]pyridin-7-yl)hexanoic acid]
10 nM	CC1(C)[C@@H](CC(=O)N2CCc3c(n(Cc4ccc(C(F)(F)F)cc4)c4ncccc34)C2)CC[C@@]1(C)C(=O)O [Example 6(53), (1R,3R)-1,2,2-trimethyl-3-(2-oxo-2-{9-[4-(trifluoromethyl)benzyl]-5,6,8,9-tetrahydro-7H-pyrido[4′,3′:4,5]pyrrolo[2,3-b]pyridin-7-yl}ethyl)cyclopentanecarboxylic acid]
8 nM	Cc1nc(C(F)(F)F)sc1Cn1c2c(c3cccnc31)CCN(C(=O)C[C@H]1CC[C@@](C)(C(=O)O)C1(C)C)C2 [Example 6(63), (1R,3R)-1,2,2-trimethyl-3-[2-(9-{[4-methyl-2-(trifluoromethyl)-1,3-thiazol-5-yl]methyl}-5,6,8,9-tetrahydro-7H-pyrido[4′,3′:4,5]pyrrolo[2,3-b]pyridin-7-yl)-2-oxoethyl]cyclopentanecarboxylic acid]
5.1 nM	O=C(CC12CCC(C(=O)O)(CC1)C2)N1CCc2c(n(Cc3cnc(C(F)(F)F)s3)c3ncccc23)C1 [Example 6(65), 4-[2-oxo-2-(9-{[2-(trifluoromethyl)-1,3-thiazol-5-yl]methyl}-5,6,8,9-tetrahydro-7H-pyrido[4′,3′:4,5]pyrrolo[2,3-b]pyridin-7-yl)ethyl]bicyclo[2.2.1]heptane-1-carboxylic acid]
28 nM	O=C(O)C1CCN(CC(=O)N2CCc3c(n(Cc4ccc(OC(F)(F)F)cc4)c4ncccc34)C2)CC1 [Example 7(3), 1-(2-oxo-2-{9-[4-(trifluoromethoxy)benzyl]-5,6,8,9-tetrahydro-7H-pyrido[4′,3′:4,5]pyrrolo[2,3-b]pyridin-7-yl}ethyl)-4-piperidinecarboxylic acid hydrochloride]
4.9 nM	C[C@@H]1CN(CC(=O)N2CCc3c(n(Cc4ccc(C(F)(F)F)s4)c4ncccc34)C2)C[C@H](C)N1CC(=O)O [Example 7(41), rel-{(2R,6S)-2,6-dimethyl-4-[2-oxo-2-(9-{[5-(trifluoromethyl)-2-thienyl]methyl}-5,6,8,9-tetrahydro-7H-pyrido[4′,3′:4,5]pyrrolo[2,3-b]pyridin-7-yl)ethyl]-1-piperazinyl}acetic acid dihydrochloride]
16 nM	O=C(O)C1=CCN(CC(=O)N2CCc3c(n(Cc4ccc(C(F)(F)F)s4)c4ncccc34)C2)CC1 [Example 7(45), 1-[2-oxo-2-(9-{[5-(trifluoromethyl)-2-thienyl]methyl}-5,6,8,9-tetrahydro-7H-pyrido[4′,3′:4,5]pyrrolo[2,3-b]pyridin-7-yl)ethyl]-1,2,3,6-tetrahydro-4-pyridinecarboxylic acid]
12 nM	O=C(CCCC1(C(=O)O)CC1)N1CCc2c(n(Cc3ccc(C(F)(F)F)s3)c3ncccc23)C1 [Example 9(1), 1-[4-oxo-4-(9-{[5-(trifluoromethyl)-2-thienyl]methyl}-5,6,8,9-tetrahydro-7H-pyrido[4′,3′:4,5]pyrrolo[2,3-b]pyridin-7-yl)butyl]cyclopropanecarboxylic acid]
17 nM	C[C@]1(C(=O)O)CC[C@H](CC(=O)N2CCc3c(n(Cc4ccc(C(F)(F)F)s4)c4ncccc34)C2)CC1 [Example 10(2), trans-1-methyl-4-[2-oxo-2-(9-{[5-(trifluoromethyl)-2-thienyl]methyl}-5,6,8,9-tetrahydro-7H-pyrido[4′,3′:4,5]pyrrolo[2,3-b]pyridin-7-yl)ethyl]cyclohexanecarboxylic acid]
3.8 nM	C[C@]1(C(=O)O)CC[C@H](CC(=O)N2CCc3c(n(Cc4cnc(C(F)(F)F)s4)c4ncccc34)C2)CC1 [Example 10(5), trans-1-methyl-4-[2-oxo-2-(9-{[2-(trifluoromethyl)-1,3-thiazol-5-yl]methyl}-5,6,8,9-tetrahydro-7H-pyrido[4′,3′:4,5]pyrrolo[2,3-b]pyridin-7-yl)ethyl]cyclohexanecarboxylic acid]
5.4 nM	COc1cc(CC(=O)N2CCc3c(n(Cc4ccc(OC(F)(F)F)cc4)c4ncccc34)C2)ccc1C(=O)O [Example 11(12), 2-methoxy-4-(2-oxo-2-{9-[4-(trifluoromethoxy)benzyl]-5,6,8,9-tetrahydro-7H-pyrido[4′,3′:4,5]pyrrolo[2,3-b]pyridin-7-yl}ethyl)benzoic acid]
8.4 nM	COc1cc(CC(=O)N2CCc3c(n(Cc4sc(C(F)(F)F)nc4C)c4ncccc34)C2)cc(OC)c1C(=O)O [Example 11(24), 2,6-dimethoxy-4-[2-(9-{[4-methyl-2-(trifluoromethyl)-1,3-thiazol-5-yl]methyl}-5,6,8,9-tetrahydro-7H-pyrido[4′,3′:4,5]pyrrolo[2,3-b]pyridin-7-yl)-2-oxoethyl]benzoic acid]
14 nM	O=C(C[C@H]1CC[C@H](C(=O)O)CC1)N1CCc2c(n(Cc3ccc(F)cc3F)c3ncccc23)C1 [Reference Example 2, trans-4-{2-[9-(2,4-difluorobenzyl)-5,6,8,9-tetrahydro-7H-pyrido[4′,3′:4,5]pyrrolo[2,3-b]pyridin-7-yl}-2-oxoethyl]cyclohexanecarboxylic acid, reference compound]

These compounds were tested on SD male rat (assay: Measurement of urethra internal pressure in rat under anesthesia). Conditions: dose 1.0 mg/kg intravenously.
Format: in vivo
From the text: A SD male rat (Crl: CD(SD), Charles River Laboratories Japan, Inc., 7-10 weeks old) which has fasted since the evening of the day before this experiment was anesthetized by subcutaneous administration of 1.5 g/kg urethane at a back of a neck. After an abdominal part was median incised, a catheter for duodenum was inserted within lumen of duodenum and then tied down by string. A lower abdominal part was median incised, and a urethra was ligated at around pubis. A urethral catheter for measuring a urethra internal pressure, equipped with a collar at a tip and filled with a physiological saline was inserted into a urethra through an incised bladder top, and ligation-fixed at a bladder neck part. The urethral catheter was connected to a pressure transducer (manufactured by Nihon Kohden Corporation), and a urethra internal pressure was measured. […] A urethra internal pressure reduction rate (%) was calculated based on a urethra internal pressure after compound administration, wherein a value obtained by subtracting a postmorten basline value (minimum value of urethra internal pressure for 10 minutes after administration of somnopentyl) from a urethra internal pressure value before compound administration (0 minute) was 100%.

Compound	urethra internal pressure reduction rate
CCc1cccc(Cn2c3c(c4cccnc42)CCN(C(=O)CC24CCC(C(=O)O)(CC2)C4)C3)c1 [Example 6(72), 4-{2-[9-(3-ethylbenzyl)-5,6,8,9-tetrahydro-7H-pyrido[4′,3′:4,5]pyrrolo[2,3-b]pyridin-7-yl]-2-oxoethyl}bicyclo[2.2.1]heptane-1-carboxylic acid]	25%

What follows are compounds tested on Crl:CD (Sparague-Dawley) male rat (assay: Measurement of blood pressure, heart rate in rat under wakefulness). Conditions: conscious rat, 100, 300 mg/kg forcedly orally administered, up to 180 minutes.
Format: in vivo
Method: A Crl:CD (Sparague-Dawley) male rat (Charles River Laboratories Japan, Inc., 8 weeks old) was anesthetized by inhalation of isoflurane. A catheter (INTRAMEDIC POLYETHYLENE Tubing PE50, CLAY ADAMS) was inserted and indwelled in a femoral artery and another end was exposed from dorsal skin. The rat was placed in a rearing cage for blood pressure measurement. After elapse of 2 hours or more from the insertion of the catheter, each of the compound of Reference Example 2 and the compound of Example 6(72) (dose: 100, 300 mg/kg) was forcedly orally administered, and blood pressure was measured under no anesthesia and no restraint. The blood pressure was measured by connecting the catheter inserted in the femoral artery and a blood pressure transducer (DX-360, Nihon Kohden Corporation) and passing through an amplifier for blood pressure measurement (Coupler•Amplifier PP-101HAP-101H, Nihon Kohden Corporation). Blood pressure signals were captured into a data acquisition analysis system (HEM 3.5, NOTOCORD SYSTEM S.A.) through a polygraph system (PEG-1000, Nihon Kohden Corporation) to measure blood pressure (systolic pressure, diastolic pressure, mean blood pressure) and heart rate (measured from blood pressure pulse wave). […] The data were accumulated as measured values at respective time points and % variation values in which each value before administration was taken as 100.

Compound	influence on a circulatory organ (blood pressure, heart rate)
CCc1cccc(Cn2c3c(c4cccnc42)CCN(C(=O)CC24CCC(C(=O)O)(CC2)C4)C3)c1 [Example 6(72), 4-{2-[9-(3-ethylbenzyl)-5,6,8,9-tetrahydro-7H-pyrido[4′,3′:4,5]pyrrolo[2,3-b]pyridin-7-yl]-2-oxoethyl}bicyclo[2.2.1]heptane-1-carboxylic acid]	no influence of the compound of Example 6(72) that is a compound of the present invention was observed on a circulatory organ
O=C(C[C@H]1CC[C@H](C(=O)O)CC1)N1CCc2c(n(Cc3ccc(F)cc3F)c3ncccc23)C1 [Reference Example 2, trans-4-{2-[9-(2,4-difluorobenzyl)-5,6,8,9-tetrahydro-7H-pyrido[4′,3′:4,5]pyrrolo[2,3-b]pyridin-7-yl}-2-oxoethyl]cyclohexanecarboxylic acid, reference compound]	An influence of the compound of Reference Example 2 on a circulatory organ was observed
